Results as given in patent US20260092070A1, “INHIBITORS OF CANINE JANUS KINASE AND USES THEREOF” (ANIMOL DISCOVERY, INC., priority 2023, published 2026).

Legend:
Human JAK-2 = Human JAK-2 (Homo sapiens, UniProt O60674); test: JAK enzymatic assay (Eurofins KinaseProfiler/IC50Profiler, radiometric), JAK-2; format: biochemical; details: human JAK-2 enzyme, 9 concentrations; read-out: JAK2 affinity (IC50) category
Method: (§1) All enzyme assays were conducted according to Eurofins Discovery's KinaseProfiler™ and IC50Profiler™ services.
(SEQ ID NO: 2) peptide substrate, 10 mM magnesium acetate and [gamma-33P]-ATP (specific activity and concentration as required). The reaction was initiated by the addition of the Mg/ATP mix. After incubation for 40 minutes at room temperature, the reaction was stopped by the addition of phosphoric acid to a concentration of 0.5%. An aliquot of the reaction was then spotted onto a filter and washed four times for 4 minutes in 0.425% phosphoric acid and once with methanol prior to drying and scintillation counting.
Data was then imported into an internal application where each data point was expressed as % inhibition based on uninhibited and no enzyme controls.

JAK-1 = JAK-1 (Homo sapiens, UniProt P23458); test: JAK enzymatic assay (Eurofins KinaseProfiler/IC50Profiler, radiometric), JAK-1; details: for JAK1/JAK2 selectivity: selectivity IC50 ratio for JAK1 versus JAK2, human enzymes
Chain of JAK-1 (P23458 whole entry): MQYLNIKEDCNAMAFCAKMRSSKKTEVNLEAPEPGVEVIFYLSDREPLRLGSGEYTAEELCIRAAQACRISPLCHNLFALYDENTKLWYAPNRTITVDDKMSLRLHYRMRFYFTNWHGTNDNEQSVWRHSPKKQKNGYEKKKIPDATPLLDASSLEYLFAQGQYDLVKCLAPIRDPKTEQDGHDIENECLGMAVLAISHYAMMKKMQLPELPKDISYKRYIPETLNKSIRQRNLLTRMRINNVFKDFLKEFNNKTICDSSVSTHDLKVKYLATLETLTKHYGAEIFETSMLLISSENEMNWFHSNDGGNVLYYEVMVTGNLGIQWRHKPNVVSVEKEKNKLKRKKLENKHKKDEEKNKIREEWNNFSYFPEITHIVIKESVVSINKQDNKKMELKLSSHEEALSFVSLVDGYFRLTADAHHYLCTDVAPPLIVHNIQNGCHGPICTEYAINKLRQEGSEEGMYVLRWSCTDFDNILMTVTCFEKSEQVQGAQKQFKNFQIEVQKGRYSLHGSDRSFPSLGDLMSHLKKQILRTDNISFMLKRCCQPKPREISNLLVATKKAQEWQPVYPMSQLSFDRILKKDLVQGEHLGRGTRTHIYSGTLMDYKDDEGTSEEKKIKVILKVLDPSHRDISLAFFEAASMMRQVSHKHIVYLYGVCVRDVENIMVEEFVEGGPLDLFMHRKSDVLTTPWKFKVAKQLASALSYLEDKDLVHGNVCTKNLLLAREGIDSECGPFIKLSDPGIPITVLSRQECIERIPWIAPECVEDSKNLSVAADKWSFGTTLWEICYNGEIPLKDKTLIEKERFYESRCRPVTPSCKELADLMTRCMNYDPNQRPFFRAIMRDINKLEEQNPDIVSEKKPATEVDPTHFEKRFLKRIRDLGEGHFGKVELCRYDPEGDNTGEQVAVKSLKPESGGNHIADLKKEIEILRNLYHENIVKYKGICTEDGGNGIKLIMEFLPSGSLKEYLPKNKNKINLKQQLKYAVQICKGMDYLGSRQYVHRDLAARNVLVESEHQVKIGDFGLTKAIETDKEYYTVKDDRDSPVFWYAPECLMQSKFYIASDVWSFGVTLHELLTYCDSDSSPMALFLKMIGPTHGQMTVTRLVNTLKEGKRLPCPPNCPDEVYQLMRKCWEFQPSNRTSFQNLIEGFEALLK
Method: as §1
(SEQ ID NO.: 1) peptide substrate, 10 mM magnesium acetate and [gamma-33P]-ATP (specific activity and concentration as required). The reaction was initiated by the addition of the Mg/ATP mix. After incubation for 40 minutes at room temperature, the reaction was stopped by the addition of phosphoric acid to a concentration of 0.5%. An aliquot of the reaction was then spotted onto a filter and washed four times for 4 minutes in 0.425% phosphoric acid and once with methanol prior to drying and scintillation counting. A known inhibitor, Staurosporine, was used as a positive control for the assay.
Data was then imported into an internal application where each data point was expressed as % inhibition based on uninhibited and no enzyme controls. […] Inhibition values for the JAK enzymes (IC50 values) for each compound were stratified into four groups.

Chain of Human JAK-2 (O60674 whole entry): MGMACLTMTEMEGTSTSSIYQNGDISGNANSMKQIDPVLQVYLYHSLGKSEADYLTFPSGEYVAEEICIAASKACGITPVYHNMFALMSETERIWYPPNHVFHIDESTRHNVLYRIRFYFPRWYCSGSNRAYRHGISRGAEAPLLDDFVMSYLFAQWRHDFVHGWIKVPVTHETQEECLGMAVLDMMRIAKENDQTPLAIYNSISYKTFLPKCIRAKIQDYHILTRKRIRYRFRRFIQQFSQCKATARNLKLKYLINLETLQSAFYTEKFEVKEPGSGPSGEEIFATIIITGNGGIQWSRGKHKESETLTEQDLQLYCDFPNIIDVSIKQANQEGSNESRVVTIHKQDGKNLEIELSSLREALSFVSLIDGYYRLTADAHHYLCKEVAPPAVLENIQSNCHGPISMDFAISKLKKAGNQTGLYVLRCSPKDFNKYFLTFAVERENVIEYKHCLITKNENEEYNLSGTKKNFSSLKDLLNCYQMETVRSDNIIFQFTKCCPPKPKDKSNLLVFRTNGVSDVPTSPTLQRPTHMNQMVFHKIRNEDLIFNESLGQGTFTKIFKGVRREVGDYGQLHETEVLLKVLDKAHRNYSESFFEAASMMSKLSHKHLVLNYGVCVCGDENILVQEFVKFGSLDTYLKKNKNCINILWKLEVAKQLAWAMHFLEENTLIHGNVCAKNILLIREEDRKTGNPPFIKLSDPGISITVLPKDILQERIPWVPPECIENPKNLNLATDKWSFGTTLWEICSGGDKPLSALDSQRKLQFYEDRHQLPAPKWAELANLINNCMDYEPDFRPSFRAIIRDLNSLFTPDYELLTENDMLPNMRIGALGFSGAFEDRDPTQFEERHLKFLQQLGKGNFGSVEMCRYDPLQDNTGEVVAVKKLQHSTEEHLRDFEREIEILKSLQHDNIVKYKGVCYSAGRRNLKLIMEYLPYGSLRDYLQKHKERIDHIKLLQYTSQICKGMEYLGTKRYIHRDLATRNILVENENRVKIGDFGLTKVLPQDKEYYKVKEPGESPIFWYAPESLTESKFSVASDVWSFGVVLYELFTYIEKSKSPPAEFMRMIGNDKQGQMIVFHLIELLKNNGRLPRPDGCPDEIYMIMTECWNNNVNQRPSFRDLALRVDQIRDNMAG

| Compound | IC50 (Human JAK-2) | IC50 (JAK-1) | JAK1/JAK2 selectivity (JAK-1) |
| --- | --- | --- | --- |
| CCN(CC)S(=O)(=O)c1ccc(NC(=O)CN2CCN(c3ncnc4[nH]ccc34)CC2)cc1 [Compound 15, 2-(4-(7H-pyrrolo[2,3-d]pyrimidin-4-yl)piperazin-1-yl)-N-(4-(N,N-diethylsulfamoyl)phenyl)acetamide] | > 1000 nM | 250 to 500 nM | 9 |
| O=C(Nc1ccccc1)C1CCN(C(=O)CN2CCN(c3ncnc4[nH]ccc34)CC2)CC1 [Compound 16, 1-(2-(4-(7H-pyrrolo[2,3-d]pyrimidin-4-yl)piperazin-1-yl)acetyl)-N-phenylpiperidine-4-carboxamide] | > 1000 nM | 250 to 500 nM | 19 |
| CC1CCCN(C(=O)C2CCN(C(=O)CN3CCN(c4nc[nH]c5nccc4-5)CC3)CC2)C1 (stereo not shown) [Compound 23, 1-[4-(3-methylpiperidine-1-carbonyl)piperidin-1-yl]-2-(4-[1H-pyrrolo[2,3-d]pyrimidin-4-yl]piperazin-1-yl)ethan-1-one] | > 1000 nM | > 1000 nM | – |
| CC(C)N(C)C(=O)C1CCN(C(=O)CN2CCN(c3nc[nH]c4nccc3-4)CC2)CC1 [Compound 24, N-methyl-N-(propan-2-yl)-1-[2-(4-{1H-pyrrolo[2,3-d]pyrimidin-4-yl}piperazin-1-yl)acetyl]piperidine-4-carboxamide] | > 1000 nM | > 1000 nM | – |
| O=C(CN1CCN(c2nc[nH]c3nccc2-3)CC1)Nc1ccc(S(=O)(=O)Nc2ncccn2)cc1 [Compound 25, N-{4-[(pyrimidin-2-yl)sulfamoyl]phenyl}-2-(4-{1H-pyrrolo[2,3-d]pyrimidin-4-yl}piperazin-1-yl)acetamide] | < 250 nM | < 250 nM | 1 |
| O=C(CN1CCN(c2nc[nH]c3nccc2-3)CC1)N1CCC(Cc2ccccc2)CC1 [Compound 26, 1-(4-benzylpiperidin-1-yl)-2-(4-{1H-pyrrolo[2,3-d]pyrimidin-4-yl}piperazin-1-yl)ethan-1-one] | > 1000 nM | 250 to 500 nM | >22 |
| NS(=O)(=O)c1cccc(NC(=O)CN2CCN(c3nc[nH]c4nccc3-4)CC2)c1 [Compound 27, 2-(4-{1H-pyrrolo[2,3-d]pyrimidin-4-yl}piperazin-1-yl)-N-(3-sulfamoylphenyl)acetamide] | > 1000 nM | < 250 nM | 14 |
| O=C(CN1CCN(c2nc[nH]c3nccc2-3)CC1)N1CCN(C(=O)Nc2ccccc2)CC1 [Compound 28, N-phenyl-4-[2-(4-{1H-pyrrolo[2,3-d]pyrimidin-4-yl}piperazin-1-yl)acetyl]piperazine-1-carboxamide] | > 1000 nM | 250 to 500 nM | 19 |
| CN(C)S(=O)(=O)c1cccc(NC(=O)CN2CCN(c3nc[nH]c4nccc3-4)CC2)c1 [Compound 29, N-[3-(dimethylsulfamoyl)phenyl]-2-(4-{1H-pyrrolo[2,3-d]pyrimidin-4-yl}piperazin-1-yl)acetamide] | > 1000 nM | 500 to 1000 nM | 11 |
| O=C(CN1CCN(c2nc[nH]c3nccc2-3)CC1)Nc1cccc(S(=O)(=O)N2CCOCC2)c1 [Compound 30, N-[3-(morpholine-4-sulfonyl)phenyl]-2-(4-{1H-pyrrolo[2,3-d]pyrimidin-4-yl}piperazin-1-yl)acetamide] | > 1000 nM | > 1000 nM | 6 |
| O=C(CN1CCN(c2nc[nH]c3nccc2-3)CC1)Nc1ccc(S(=O)(=O)N2CCCCC2)cc1 [Compound 31, N-[4-(piperidine-1-sulfonyl)phenyl]-2-(4-{1H-pyrrolo[2,3-d]pyrimidin-4-yl}piperazin-1-yl)acetamide] | > 1000 nM | < 250 nM | 4 |
| O=C(CN1CCN(c2nc[nH]c3nccc2-3)CC1)Nc1cccc(S(=O)(=O)N2CCCC2)c1 [Compound 32, N-[3-(pyrrolidine-1-sulfonyl)phenyl]-2-(4-{1H-pyrrolo[2,3-d]pyrimidin-4-yl}piperazin-1-yl)acetamide] | > 1000 nM | 250 to 500 nM | 23 |
